Experimental data: US11584763B2, “Chromenopyridine derivatives as phosphatidylinositol phosphate kinase inhibitors” (HIBERCELL, INC., priority 2017, dated 2023)

Experiments:
Type in all cases: biochemical
[1] = target: T1, PIP4K2B (Homo sapiens, UniProt P78356); assay: Trans-FI P kinase assay PIP4K2B (PIP4KtypeIIB inhibition assay); conditions: compounds listed under IC50 bin headings; 100 uM GTP; read-out: Trans-FI P kinase assays: PIP4K2B IC50
T1 construct: made in house; host or cells: E. coli
T1 sequence (P78356 1-416): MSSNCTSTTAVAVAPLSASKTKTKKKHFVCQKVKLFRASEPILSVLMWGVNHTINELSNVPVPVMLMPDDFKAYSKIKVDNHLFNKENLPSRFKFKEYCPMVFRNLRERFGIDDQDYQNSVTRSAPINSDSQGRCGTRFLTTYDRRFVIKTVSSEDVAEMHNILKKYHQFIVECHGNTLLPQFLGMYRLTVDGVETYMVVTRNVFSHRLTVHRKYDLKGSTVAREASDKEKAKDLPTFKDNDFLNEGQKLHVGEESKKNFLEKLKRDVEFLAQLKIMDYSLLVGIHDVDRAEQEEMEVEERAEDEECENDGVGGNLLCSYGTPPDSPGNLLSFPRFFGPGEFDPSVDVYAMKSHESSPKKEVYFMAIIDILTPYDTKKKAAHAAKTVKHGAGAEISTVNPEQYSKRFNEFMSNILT
In short: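 Transcreener FI fluorescence read-out of GDP formed by E. coli-expressed GST-PIP4K2B (5 nM) using 100 uM GTP and 80 uM PI5P with DOPE carrier lipid, pH 7.3, 2 h reaction. Compounds (up to 4.8 uM) were preincubated with enzyme 1 h at 27 C; IC50 fitted from residual activity relative to no-inhibitor control.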

[2] = target: T2, PIP4K 2A (Homo sapiens, UniProt P48426); assay: Kinase Assay PIP4K2 A (PIP4KtypeIIA inhibition assay); design: made in house; host or cells: E. coli; conditions: compounds listed under IC50 bin headings
T2 sequence (P48426 1-406): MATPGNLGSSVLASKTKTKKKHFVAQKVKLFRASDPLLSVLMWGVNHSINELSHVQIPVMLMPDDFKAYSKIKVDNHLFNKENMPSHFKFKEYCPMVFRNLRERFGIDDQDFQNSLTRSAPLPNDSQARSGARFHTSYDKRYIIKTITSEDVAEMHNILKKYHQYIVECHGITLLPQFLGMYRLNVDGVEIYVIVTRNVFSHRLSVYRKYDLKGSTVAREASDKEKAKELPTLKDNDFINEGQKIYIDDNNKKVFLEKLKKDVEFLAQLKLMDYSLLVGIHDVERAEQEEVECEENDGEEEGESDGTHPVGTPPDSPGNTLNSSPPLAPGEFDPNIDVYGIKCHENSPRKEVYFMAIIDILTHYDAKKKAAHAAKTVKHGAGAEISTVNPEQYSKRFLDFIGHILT
Text: GST tagged PIP4KtypeIIA and B enzymes were overexpressed in E. Coli and purified to >80% homogeneity. Phosphatidyl inositol-5-phosphate (PI5P, Cat. #850152, Avanti Polar Lipids Inc.) was used as the lipid substrate and phosphatidyl ethanolamine (DOPE 18:1, Cat. #850725, Avanti Polar Lipids Inc.) was used as the carrier lipid for assays. Ultrapure ATP and GTP was purchased from Bellbrooke Labs. ADP Glo reagents were obtained from Promega. Transcreener FI reagent was obtained from Bellbrooke labs.
Enzyme preparation: GST-tagged PIP4KtypeIIA (5 uL, 1.43 mg/mL) was diluted (1:10) to 50 uL using HNE buffer. From the 1:10 diluted stock, a 6.4 uL aliquot was diluted further to 5 mL using HNE buffer to yield 5× enzyme stock (2.5 nM).
Lipid Preparation: In a 10 mL pyrex glass vial, 1 ug of PI5P and 1 ug of DOPE were suspended in 2.5 mL of HEPES buffer mix and 2.5 mL of H:E buffer. The contents were mixed and sonicated for 3 min to yield a translucent lipid stock.
Compound Preparation: Compounds were stored as 5 mM stocks in neat DMSO as room temperature in glass vials. 5 mM stocks were diluted to 2 mM and then serially diluted (3×) in neat DMSO in 96 well polypropylene plates. From the serially diluted stocks, 3 uL was delivered into 250 uL of 25% DMSO (in water) to generate 5× compound stocks. Typically, the highest compound conc. was 24 uM.
The assay volume was kept at 25 uL. To each well of the reaction plate, 10 uL of lipid stock (1:1 ratio PI5P:DOPE) was delivered. This was followed by the addition of 5 uL of compound in 25% DMSO. Then, to each well, 5 uL of 2.5 nM (5×) typeIIA enzyme was delivered. The contents were mixed well and incubated for 1 h at 27 C. After 1 h, reaction was initiated by adding 5 uL of 50 uM ATP and the contents were mixed well with a multi-channel pipetteman. The final concentration of the reagents are as follows: 50 mM HEPES, pH 7.3, 10 mM MgCl2, 20 mM NaCl, 0.01% v/v triton-X100, 5% DMSO, 10 uM ATP, 80 uM (2 ug) PI5P, 2 ug DOPE, and 0.5 nM PIP4KIIA. Typically, the highest conc. of compounds was 4.8 uM and the lowest conc. was 0.
After 1 hr, the reaction was quenched by adding 25 uL of ADP Glo reagent. The contents were incubated for 1 hr. Afterwards, 50 uL of kinase detection reagent was delivered. The contents were incubated for another hour. The luminescence was read using Molecular Devices Paradigm plate reader. […] The blanks were averaged and subtracted from all other wells. Using a calibration curve, RLU was converted to uM ADP (product). IC50 was calculated by plotting the residual activity (expressed as % No inhibitor control) vs. log [Inh. conc.]

[3] = target: T2, PIP4K 2A; assay: ADP-glo kinase assay PIP4K 2A; design: 4 nM PIP4K2A (full length protein, SignalChem); purchased SignalChem; conditions: compounds listed under IC50 bin headings
In short: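 Inhibition was calculated versus DMSO controls from ADP-Glo luminescence and fitted to IC50 over a 10-point, threefold series. Compound was first pre-incubated 15 min at room temperature with PIP4K2A (full-length; 4 nM in the enzyme/substrate mix) and PI(5)P diC8 (100 μM in that mix). The reaction then ran for 1 h after adding 60 μM ATP solution, in MOPS pH 7.2/MgCl2/Tween buffer.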

| SMILES | IC50 [1] | IC50 [2] | IC50 [3] |
| --- | --- | --- | --- |
| CC1Oc2cc(N3CCCC3=O)ccc2-c2cnc(Nc3cnc4c(c3)N(S(C)(=O)=O)CCO4)cc21 (stereo not drawn) [Example 49, 1-(5-methyl-3-((1-(methylsulfonyl)-2,3-dihydro-1H-pyrido[2,3-b][1,4]oxazin-7-yl)amino)-5H-chromeno[4,3-c]pyridin-8-yl)pyrrolidin-2-one] | 100 to 1000 nM | ≤ 1 nM | 1 to 10 nM |
| CC1Oc2cc(N3CCCC3=O)ccc2-c2cnc(Nc3cncc(F)c3)cc21 (stereo not drawn) [Example 50, 1-(3-((5-fluoropyridin-3-yl)amino)-5-methyl-5H-chromeno[4,3-c]pyridin-8-yl)pyrrolidin-2-one] | > 1000 nM | 1 to 10 nM | 10 to 100 nM |
| CC1Oc2cc(N3CCCC3=O)ccc2-c2cnc(Nc3cncc(N(C4CC4)S(C)(=O)=O)c3)cc21 (stereo not drawn) [Example 51, N-cyclopropyl-N-(5-((5-methyl-8-(2-oxopyrrolidin-1-yl)-5H-chromeno[4,3-c]pyridin-3-yl)amino)pyridin-3-yl)methanesulfonamide] | 10 to 100 nM | ≤ 1 nM | 1 to 10 nM |
| CC1Oc2cc(N3CCCC3=O)ccc2-c2cnc(Nc3cnc4c(c3)N(S(=O)(=O)C3CC3)CCO4)cc21 (stereo not drawn) [Example 52, 1-(3-((1-(cyclopropylsulfonyl)-2,3-dihydro-1H-pyrido[2,3-b][1,4]oxazin-7-yl)amino)-5-methyl-5H-chromeno[4,3-c]pyridin-8-yl)pyrrolidin-2-one] | 100 to 1000 nM | ≤ 1 nM | 1 to 10 nM |
| CC1Oc2cc(N3CCCC3=O)ccc2-c2cnc(Nc3cncc(N4CCN(C)C4=O)c3)cc21 (stereo not drawn) [Example 53, 1-methyl-3-(5-((5-methyl-8-(2-oxopyrrolidin-1-yl)-5H-chromeno[4,3-c]pyridin-3-yl)amino)pyridin-3-yl)imidazolidin-2-one] | 10 to 100 nM | ≤ 1 nM | 1 to 10 nM |
| CC1Oc2cc(N3CCCC3=O)ccc2-c2cnc(Nc3cncc(N4CCCC4=O)c3)cc21 (stereo not drawn) [Example 54, 1-(5-methyl-3-((5-(2-oxopyrrolidin-1-yl)pyridin-3-yl)amino)-5H-chromeno[4,3-c]pyridin-8-yl)pyrrolidin-2-one] | 10 to 100 nM | ≤ 1 nM | 1 to 10 nM |
| CC1Oc2cc(N3CCCC3=O)ccc2-c2cnc(Nc3cncc(N4CCNC4=O)c3)cc21 (stereo not drawn) [Example 55, 1-(5-((5-methyl-8-(2-oxopyrrolidin-1-yl)-5H-chromeno[4,3-c]pyridin-3-yl)amino)pyridin-3-yl)imidazolidin-2-one] | 10 to 100 nM | ≤ 1 nM | 1 to 10 nM |
| CC1Oc2cc(N3CCCC3=O)ccc2-c2cnc(Nc3cncc(N4CCN(Cc5cscn5)C4=O)c3)cc21 (stereo not drawn) [Example 56, 1-(5-((5-methyl-8-(2-oxopyrrolidin-1-yl)-5H-chromeno[4,3-c]pyridin-3-yl)amino)pyridin-3-yl)-3-(thiazol-4-ylmethyl)imidazolidin-2-one] | 1 to 10 nM | ≤ 1 nM | ≤ 1 nM |
| CC1Oc2cc(N3CCCC3=O)ccc2-c2cnc(Nc3cnc4ccn(S(C)(=O)=O)c4c3)cc21 (stereo not drawn) [Example 57, 1-(5-methyl-3-((1-(methylsulfonyl)-1H-pyrrolo[3,2-b]pyridin-6-yl)amino)-5H-chromeno[4,3-c]pyridin-8-yl)pyrrolidin-2-one] | 10 to 100 nM | ≤ 1 nM | 1 to 10 nM |
| CC1Oc2cc(N3CCCC3=O)ccc2-c2cnc(Nc3cnc4c(c3)N(C(=O)C3(O)CC3)CCO4)cc21 (stereo not drawn) [Example 58, 1-(3-((1-(1-hydroxycyclopropane-1-carbonyl)-2,3-dihydro-1H-pyrido[2,3-b][1,4]oxazin-7-yl)amino)-5-methyl-5H-chromeno[4,3-c]pyridin-8-yl)pyrrolidin-2-one] | 1 to 10 nM | ≤ 1 nM | ≤ 1 nM |
